From patent US6897227B2, “Prodrugs of proton pump inhibitors” (Winston Pharmaceuticals, Inc., priority 2002, dated 2005)

What was measured:
[1] = tested on: gastric acid secretion; experiment: Inhibition of gastric acid secretion in rat, intravenous administration; format: in vivo; conditions: 5 μmole/kg
Procedure: (§1) 3 hours after administration the abdomen of the rat was incised and the pylorus was ligated under light ether anethesia. Histamine (30 mg/kg) and carbachol (30 μg/kg) were subcutaneously injected for acid stimulation. Immediately the abdomen was closed. Two hours later, the esophagus was ligated and the stomach was removed. The gastric juice was collected and acid output was quantified by titration using 0.1 N NaOH solution. As a control experiment, 1 ml of 50 mM phosphate buffer (pH 7.4) solution was orally administrated without any prodrug or proton pump inhibitory drug. Acid output was quantified by same method as described above, showing maximum histamine and carbachol-stimulated gastric acid secretion. Percentage inhibition was calculated from the fractional responses elicited by the test compound and a control experiment.
Inhibition of gastric acid secretion after intravenous administration of compounds of the invention was also examined. Lansoprazole sodium salt (20 mg) was dissolved in 40% hydroxypropyl-beta-cyclodextrin. The compounds of the invention used in this experiment were dissolved in phosphate buffered saline solution of pH 7.4. Each compound was injected intravenously at a dose of 5 μmole/kg or 10 μmole/kg (μmole per kg body weight of rat) as indicated in Table 4 below. Between 2 to 4 hours after injection gastric juice was collected, and the percentage of inhibition was determined as described above.

[2] = Aqueous solubility (water / distilled water); format: physicochemical; conditions: free carboxylic acids
Excerpt: A further significant advantage of the proton pump inhibitor prodrugs of the present invention relative to the proton pump inhibitor prodrugs disclosed in U.S. Pat. No. 6,093,734, 6,559,167 and PCT Publication WO 00109498 and to all other prior art is their increased solubility.

[3] = Stability in Britton Robinson buffers (hydrolysis of prodrug to PPI, HPLC); conditions: Britton Robinson buffer, pH 7
Procedure: (§2) The stability of Compounds 1, 2, 3, 4 and 5 of the invention in aqueous solution (0.1 mg/mL) was investigated in Britton Robinson buffers of pH 3, pH 7, and pH 9, respectively. A solution of 0.1 mg/mL concentration of each compound in each buffer was prepared and the solutions were stored at 37° C. for 1 h and then the concentrations of test compounds were determined by HPLC.

[4] = Solubility in phosphate buffered saline buffer of pH 7.4 at 37° C.; format: physicochemical; conditions: aqueous buffer, sodium salts, phosphate buffered saline buffer pH 7.4, read-out: Solubility at 37° C. Conc.
Procedure: The solubility of the sodium salts of certain exemplary compounds of the present invention in a phosphate buffered saline buffer of pH 7.4 (50 mM sodium phosphate, 10 mM KCl, 0.1 M NaCl) and also in a more acidic Britton Robinson buffer of pH 3 (40 mM acetic acid, 40 mM phosphoric acid, 40 mM boric acid, 36 mM NaOH, and 19.6 mg/ml KCl) was also evaluated. […] The tested compounds were much less soluble little in the Britton Robinson buffer of pH 3, but still more soluble than the prior art compounds (a) through (f). This is understandable in view of the fact that in the buffer of pH 7.4 the compounds of the invention form a sodium salt, whereas in the buffer of pH 3 the compounds are less soluble free carboxylic acids. Thus, a solution of a sodium or other pharmaceutically acceptable salt of the compounds of the invention, or stated in an other way the compounds of the invention at pH 7 or above are highly soluble and therefore suitable for administration by intravenous injection.

[5] = tested on: histamine and carbachol-stimulated gastric acid secretion; experiment: Inhibition of gastric acid secretion of the conscious male rat, oral administration; format: in vivo, rat (Sprague-Dawley); conditions: sodium salt
Procedure: Male rats (the Sprague-Dawley strain) were used in this experiment. OMEPRAZOLE sodium salt or LANSOPRAZOLE sodium salt (20 mg) was suspended in 10 ml of 0.1 N NaHCO3. 40 mg of each of the sodium salts of Compound 1, Compound 2, Compound 3, Compound 4, Compound 6 Compound 9, Compound 12, mixture (1:1) of Compound 16 and 17, mixture (1:1) of Compound 18 and 19, mixture (1:1) of Compound 20 and 21, mixture (1:1) of Compound 22 and 23, Compound 27, mixture (1:1) of Compound 34 and 35, and Compound 36 were dissolved in 10 ml of 50 mM sodium phosphate buffer, pH 7.4. The doses administered to the rats were as follows (μmole per kg body weight of the rat): OMEPRAZOLE (10 μmole/kg), LANSOPRAZOLE (10 μmole/kg), Compound 120 μmole/kg, Compound 2 40 μmole/kg, Compound 320 μmole/kg, Compound 420 μmole/kg, Compound 620 μmole/kg, Compound 940 μmole/kg, Compound 1240 μmole/kg, mixture (1:1) of Compound 16 and 17 40 μmole/kg, mixture (1:1) of Compound 18 and 19 40 μmole/kg, mixture (1:1) of Compound 20 and 21 40 μmole/kg, mixture (1:1) of Compound 22 and 23 40 μmole/kg, Compound 27 40 μmole/kg, mixture (1:1) of Compound 34 and 35 40 μmole/kg, and Compound 3640 μmole/kg. These drug solutions were orally administered.
as §1

[6] = Stability in plasma at 37° C. (gradient HPLC-UV), rat plasma; format: in vitro ADME
Procedure: Exemplary test compounds (prodrugs) of the invention were incubated in plasma at 37° C., and the concentration of the compounds and also of the corresponding proton pump inhibitor compounds (PPI) were determined by a gradient HPLC-UV method. Although the half-lives of test compounds in plasma varies depending on their structure, nevertheless it is apparent that in plasma the compounds of the invention are converted into the corresponding proton pump inhibitor at a rate faster than the hydrolysis rate of the compound at neutral or near neutral pH.

[7] = buffer
Procedure: as §2

Row | solubility [2] [mg/mL] | half-life at 0.1 mg/mL [3] [h] | solubility [4] [mg/mL] | half-life [6] [min] | Half-life of hydrolysis at pH 7 of the prodrug to the corresponding proton pump inhibitory drug [7] | SMILES | % inhibition of gastric acid secretion between 2-4 hours after i.v. administration [1] [%] | inhibition in vivo at 40 µmol/kg ([5]; 40 μmole/kg, read-out: % inhibition of gastric acid secretion between 3-5 hours after administration) [%] | % inhibition of gastric acid secretion between 3-5 hours after administration ([5]; 20 μmole/kg) [%]
1 | > 0.1 | > 50 | > 50 | 18 | – | Cc1c(OCC(F)(F)F)ccnc1C[S+]([O-])c1nc2ccccc2n1S(=O)(=O)c1ccc(OCC(=O)[O-])cc1.[Na+] (centres unmarked) [Compound 2, (4-{2-[3-Methyl-4-(2,2,2-trifluoro-ethoxy)-pyridin-2-ylmethanesulfinyl]-benzimidazole-1-sulfonyl}-phenoxy)acetic acid sodium salt] | 63.1 ± 31.7 | 64.2 ± 11.3 | –
2 | – | – | – | – | over 50 hours | CCC(Oc1ccc(S(=O)(=O)n2c([S+]([O-])Cc3nccc(OCC(F)(F)F)c3C)nc3ccccc32)cc1)C(=O)O (centres unmarked) [Compound 4, 2-(4-{2-[3-Methyl-4-(2,2,2-trifluoro-ethoxy)-pyridin-2-ylmethanesulfinyl]-benzimidazole-1-sulfonyl}phenoxy)butric acid] | – | – | 60.9 ± 25.5
